This note sets out measurements from ChEMBL document CHEMBL3407474, “Structural insight of glitazone for hepato-toxicity: Resolving mystery by PASS” (Bioorg Med Chem Lett, 2015).

The subject of assay [1] is HepG2. Nature of the assay: Induction of p53 protein level in human HepG2 cells at 50 uM upto 24 hrs by immunoblot analysis. Format: functional, cell-based. Background: A western blot detects proteins with antibodies after separation by electrophoresis.
The subject of assay [2] is HepG2. Nature of the assay: Induction of p53 protein level in human HepG2 cells at 50 uM by immunoblot analysis. The conditions noted are these: TDE = time-dependent effect. Format: functional, cell-based.

The source made the active and inactive calls. The calls are words filed in the database; no cut-off is given here.

Regarding `CCc1ccc(CCOc2ccc(CC3SC(=O)NC3=O)cc2)nc1` (centres undefined), in the assay on HepG2 [1], the outcome was inactive.

`CN(CCOc1ccc(CC2SC(=O)NC2=O)cc1)c1ccccn1` (centres undefined): in the assay with HepG2 [1], the outcome was inactive.

On to `Cc1c(C)c2c(c(C)c1O)CCC(C)(COc1ccc(CC3SC(=O)NC3=O)cc1)O2` (centres undefined), for which the result with HepG2 [1] was Active. In the assay on HepG2 [2], the Activity result was “tde”.
